The results in this text go back to patent publication US20250288599A1, “PHARMACEUTICAL COMPOSITIONS AND METHODS FOR TREATING OSTEOARTHRITIS” (INSIGNIA PHARMACEUTICALS, LLC, priority 2024, published 2025).

SMILES strings stand for the structures.

Experiment [1] relates to SOX9 expression in dedifferentiated osteoarthritic chondrocytes. In words: SOX9 relative expression in dedifferentiated osteoarthritic chondrocytes treated 14 days with Lac. It is filed as cell-based, human. An excerpt: Lac is commonly thought to be simply an end-product of anaerobic glycolysis; however, it may also have immunomodulatory effects and promote protein modifications that alter gene expression. The goal of this experiment was to determine how Lac supplementation affects early-phase, inflammatory, and late-stage redifferentiation in chondrocyte models. To establish how Lac may influence inflammation early in osteoarthritis, monolayers of normal human chondrocytes were exposed to Lac dose responses of up to 100 millimolar, concurrently with 0.5 nanograms per milliliter IL-1β for 48 hours. The release of PGE2 was then quantified using competitive EIA. To investigate how Lac affects transcriptional programs in dedifferentiated osteoarthritic chondrocytes, monolayer cultures and micromass pellets were treated for 14 days with 100 millimolar final concentrations of Lac, with and without 10 nanograms per milliliter transforming growth factor beta 3 (TGF-β3). Total RNA was then isolated, and relative expression of SOX9 or Col2a1 was calculated using qRT-PCR, normalized to GAPDH. […] Lac may also have beneficial effects on osteoarthritic chondrocytes; 100 millimolar final Lac concentrations increased the relative expression of SOX9 and Col2a1 by 8-fold and 1600-fold, respectively, in monolayer cultures. […]

In experiment [2] the test system is Elastin (ELN) expression in normal human dermal fibroblasts (NHDF). In words: ELN mRNA in NHDF activated with TGF-β1 or IL-1β, 24 h, qRT-PCR. Conditions: 100 mM Lac or 0.1 mM Dxp. It is filed as cell-based. The protocol: (§1) After 24 hours, total mRNA was isolated and delta-delta Cp relative expression was calculated versus untreated medium controls, normalized to the housekeeping gene, GAPDH. Statistical analysis was then conducted via t-test.

Experiment [3] has as its system MMP12 expression in normal human dermal fibroblasts (NHDF). The experiment can be described thus: MMP12 mRNA in NHDF activated with IL-1β, 24 h, qRT-PCR. In kind it is cell-based. The note with it: IL-1β 0.1 ng/ml, 100 mM Lac or 0.1 mM Dxp, IL-1β alone 17.8±12.3. The procedure:
as §1
Background: Quantitative PCR measures a nucleic acid by following its amplification.

For experiment [4], the system named is SOX9 expression in human osteoarthritic chondrocytes. The experiment can be described thus: SOX9 relative expression in high and low passage osteoarthritic chondrocytes, 7, 14 or 28 days. It is filed as cell-based. An excerpt:
Media was exchanged bi-weekly. […] SOX9 is a transcription factor vital to the development and maintenance of cartilage and is required for chondrogenesis. SOX9 promotes chondrocyte survival and transcriptionally activates cartilage-specific genes. SOX9 is repressed in hypertrophic chondrocytes (i.e. terminally differentiated osteoblast-like cells).

For experiment [5], the system named is RUNX2 expression in human osteoarthritic chondrocytes. In words: RUNX2 relative expression in low passage osteoarthritic chondrocytes, 7, 14 or 28 days. The note with it: 7, 14, 28 days. It is filed as cell-based. The procedure: Media was exchanged bi-weekly. Chondrocytes cultured for 7 days, 14 days, or 28 days were analyzed to assess SOX9 and RUNX2 expression. SOX9 is a transcription factor vital to the development and maintenance of cartilage and is required for chondrogenesis. SOX9 promotes chondrocyte survival and transcriptionally activates cartilage-specific genes. SOX9 is repressed in hypertrophic chondrocytes (i.e. terminally differentiated osteoblast-like cells).
The RUNX2 expression is provided at 7, 14, and 28 days of culturing.

For experiment [6], the system named is Col2a1 expression in human osteoarthritic chondrocytes. In words: Col2a1 relative expression in human osteoarthritic chondrocytes (passage 5) cultured 27 days. Conditions: 50 micromolar Dec, 0.1 μM Dxp, 100 mM Lac. It is filed as cell-based. The protocol:
To evaluate the biological ramifications of the SOX9 to RUNX2 regulation mentioned above, delta-delta relative gene expression was assessed against medium controls, with normalization to GAPDH for both Col2a1 and Col1a1 in the samples tested with reference to Example 15. […] Moreover, treatment with 100 mM Lac increased collagen expression (49.88±4.31 and 1.63±0.20 for Col2a1 and Col1a1, respectively; FIGS. 51 and 52).

Experiment [7] deals with SOX9 expression in dedifferentiated osteoarthritic chondrocytes. In words: SOX9 relative expression in high passage osteoarthritic chondrocyte monolayer model with TGF-β. Conditions: 14 days in culture with TGF-β; 28 mM Lac, 100 mm LA. It is filed as cell-based, human. The procedure:
These compounds were tested in a high passage osteoarthritic chondrocyte monolayer model, alone or in combination with other agents, for both transcriptional regulation of standard markers and IL-1β-induced PGE2 production.

Experiment [8] concerns PGE2 release from passage 3 normal human chondrocytes. In words: Rescue versus preincubation regimens, IL-1β-induced PGE2 release from passage 3 normal human chondrocytes. It is filed as cell-based. The note with it: 25 μM Dec, 28 mM Lac, 10 μM LA, singlet. The source says:
The mechanisms of action (MOA) of a drug often dictate the timing and delivery of treatment regimens. While the MOA of compounds disclosed herein continue to be elucidated, experiments were designed to help establish how the drugs should be administered. Furthermore, these experiments will also help with hypothesis generation for subsequent MOA investigations. A low-passage chondrocyte monolayer model was utilized to establish how changes in drug delivery impact the inhibition of IL-1β-induced PGE2 release seen following treatment with the compounds under investigation.
Passage 3 normal human chondrocytes were seeded into tissue culture plates and then tested for compound activity by pre-treating for 24 hours, administering at the same time as activation, or by adding to cells following an overnight activation with IL-1β. Treatment groups included medium control, 25 μM decanoate (Dec), 28 mM D/L sodium Lac, and 10 μM LA. PGE2 release was then evaluated 24- or 96-hours post-activation with percent inhibitions calculated versus plate- and block-matched controls. The experiments were performed in singlet and are intended to be repeated to establish variance.

Where [9] appears, read: low passage osteoarthritic chondrocytes, 7, 14, 28 days.

As for `CC(O)C(=O)O` (stereo not shown) [Lac, lactate], in experiment [1] (100 millimolar Lac with TGF-β3, 14 days, micromass cultures), the “increase in SOX9” value came to 9 fold. In experiment [1] (100 millimolar Lac, 14 days, monolayer cultures), the “increase in relative expression of SOX9” value is recorded as 8 fold. Moreover, the “relative expression of ELN” value was 0.86±3 in experiment [2] (IL-1β 0.1 ng/ml, IL-1β alone 18±12, n=3) and 45+36 in experiment [2] (TGF-β1 10 ng/ml, TGF-β1 alone 110±35, n=3). The “relative expression of MMP12” value in experiment [3] is 2.2±0.8. Besides, the SOX9 expression entry is listed as “increased SOX9 transcription” in experiment [4] (high passage, dedifferentiated osteoarthritic chondrocytes with TGF-β3, 14 days) and “temporal increase in SOX9” in experiment [4] (setting [9]). Besides, the “ratio of SOX9/RUNX2” value in experiment [4] (setting [9]) is listed as “temporally increased”. In experiment [5], the RUNX2 expression entry was “temporal decrease in RUNX2”. The “Col2a1 delta-delta relative gene expression” value in experiment [6] is on record as 49.88±4.31 fold. Moreover, the “increase in SOX9 transcription” value in experiment [7] is reported as 2 fold. For the same compound, the “inhibition of PGE2 release” value came to 64% in experiment [8] (rescue (added after overnight IL-1β activation), 24-hour harvest) and 27% in experiment [8] (rescue, 96-hour harvest).
